This assay addresses T1, human TSHR (Homo sapiens, UniProt P16473).
T1 construct: expressed in transfected cells
As to the kind of experiment: Homogeneous Time Resolved Fluorescence (HTRF) cAMP assay, TSHR cell line. It is filed as cell-based. As to conditions: for AC50: HTRF cAMP, TSHR cell line, 30 minute incubation, read-out: AC50; for Emax: read-out: Maximum Activity compared to TSH, 100% activity = response of 30 mU/ml TSH, 0% = DMSO control; for Maximum Activity compared to TSH: 100% activity = response of 30 mU/ml TSH, 0% = DMSO control, in %. The source says:
Generation of Stable Cell-Lines Expressing TSHR, LHCGR or FSHR.
cDNA for human TSHR was amplified by PCR from hTSHR-pSVL (1) and inserted into the pcDNA3.1(−)/hygromycin vector using restriction sites XhoI and BamHI. cDNA for human LHCGR was amplified by PCR from hLHR-pGS5 (2) and was inserted into the pcDNA3.1(+)/hygromycin vector using restriction sites BamHI and XhoI. The FSHR cDNA in pcDNA3.1 was obtained from the Missouri S&T cDNA Resource Center (www.cDNA.org) and was subcloned into the pcDNA3.1(−)/hygromycin vector. Constructs were confirmed by sequencing (MWG Biotech). HEK-EM 293 cells were transfected with the cDNA of TSHR, LHCGR or FSHR using FuGENE 6 Transfection reagent (Roche Diagnostics) according to the manufacturer's protocol. Two days after transfection cells were passaged and grown in Dulbecco's modified Eagle's Medium (DMEM) supplemented with 10% fetal bovine serum, 100 units/ml penicillin and 10 μg/ml streptomycin (Life Technologies Inc.) and with hygromycin (250 μg/ml) as a selection marker. After 7 to 10 days hygromycin-resistant clones were selected, and after a few days of further growth submitted for a cAMP assay to identify clones that stably express the appropriate receptor. Cell Culture. Cells stably expressing TSHR, LHCGR or FSHR and parental HEK 293 cells were maintained in DMEM medium containing 10% FBS, 100 units/ml Penicillin, 100 μg/ml Streptomycin, at 37° C. in 5% CO2. For the cells lines stably expressing TSHR, LHCGR or FSHR, additional 250 μg/ml Hygromycin was added during the cell culture. The cells were seeded at a density of 3 to 4 million cells in a T175 flask containing 35 ml of media and were allowed to grow for 3 days to reach 80-90% confluence. A flask of HEK 293 cells at this density generally yielded 30 million cells total. Homogeneous Time Resolved Fluorescence (HTRF) cAMP Assay. Compounds were assayed using a HTRF cAMP detection kit (Cisbio, Bedford, Mass.) on both TSHR cell line and parental cell line. Briefly, 750 cells were plated in 2.5 μl/well of complete media (DMEM containing 10% FCS) in 1536 well solid bottom white plates and 20 nl/well compound in DMSO solution or controls was added. Following 30 minute incubation at room temperature, 2.5 μl/well of labeled d2 cAMP and 2.5 μl/well of anti-cAMP antibody (both diluted 1:20 in lysis buffer) were added to each well using a flying reagent dispenser (Aurora Discovery, San Diego). Plates were measured using the Envision plate reader (PerkinElmer, Boston, Mass.) with excitation at 330 nm and emissions of 615 nm and 660 nm. Compound Preparation. […] Data Analysis. […] The EC50 values of compounds were calculated from the concentration-response curves by nonlinear regression analysis using Prism software (GraphPad Software, San Diego, Calif.). Confirmatory cAMP Assay and Test for Selectivity Towards TSHR 50,000 cells/well were plated in complete media (DMEM containing 10% FCS) in 96 well plates. […] Following aspiration of the medium after incubation with compounds, cells were lysed using lysis buffer of the cAMP-Screen Direct™ System (Applied Biosystems, Cat # CSD200). The cAMP content of the cell lysate was determined using the manufacturer's protocol. […] Below is a List of Compounds that were Assayed via the Homogeneous Time Resolved Fluorescence (HTRF) cAMP Assay.
For orientation: TR-FRET usually uses a lanthanide donor and a delayed reading to cut background.

Data on 39 compounds can be found in patent publication US9458141B2, “Low molecular weight thyroid stimulating hormone receptor (TSHR) agonists” (The United States of America, as represented by the …, priority 2008, dated 2016).

As a reminder, the AC50 is the midpoint of the concentration-response curve, whichever way the signal moves.

Structures are written as SMILES.

T1 sequence (P16473 21-764): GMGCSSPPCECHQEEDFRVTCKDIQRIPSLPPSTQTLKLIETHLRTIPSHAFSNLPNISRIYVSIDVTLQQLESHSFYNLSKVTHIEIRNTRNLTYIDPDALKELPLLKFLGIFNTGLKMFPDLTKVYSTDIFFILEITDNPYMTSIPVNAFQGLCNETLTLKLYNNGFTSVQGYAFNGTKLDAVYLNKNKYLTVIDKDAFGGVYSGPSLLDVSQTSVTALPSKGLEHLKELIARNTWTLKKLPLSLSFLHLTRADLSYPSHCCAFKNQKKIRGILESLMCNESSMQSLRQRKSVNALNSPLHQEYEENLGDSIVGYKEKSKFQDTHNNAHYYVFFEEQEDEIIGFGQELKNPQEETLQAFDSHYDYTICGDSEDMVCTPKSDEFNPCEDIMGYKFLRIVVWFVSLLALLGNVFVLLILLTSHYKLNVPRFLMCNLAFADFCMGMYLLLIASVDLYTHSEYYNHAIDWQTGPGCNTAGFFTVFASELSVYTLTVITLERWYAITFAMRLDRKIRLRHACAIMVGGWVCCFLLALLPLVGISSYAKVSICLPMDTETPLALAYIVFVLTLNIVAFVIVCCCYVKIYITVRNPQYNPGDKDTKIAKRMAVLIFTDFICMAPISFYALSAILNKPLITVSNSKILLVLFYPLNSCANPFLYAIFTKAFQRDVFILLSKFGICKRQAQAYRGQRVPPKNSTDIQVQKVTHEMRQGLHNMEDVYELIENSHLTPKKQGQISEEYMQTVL

`COc1ccc(C2Nc3ccccc3C(=O)N2Cc2ccc(Cl)cc2)cc1COc1ccc(NC(C)=O)cc1` (stereo not shown) [Structure 72]: the concentration at half-maximal activity (AC50) came out at 3.98 µM and the Emax was 55.2%. For the compound `COc1ccc(CN(Cc2ccccc2)C(=O)c2ccc(O)cc2)cc1COc1ccc(NC(C)=O)cc1` [Structure 73], the “Maximum Activity compared to TSH” value came out at 75.04 and the AC50 amounted to 28.2 µM. For the compound `COc1ccc(C2Nc3ccccc3C(=O)N2Cc2ccc(-c3ccccc3)cc2)cc1COc1ccc(NC(C)=O)cc1` (stereo not shown) [Structure 74], the concentration at half-maximal activity (AC50) is 2.82 µM and the Emax was 36%. As for `COc1ccc(CN(Cc2ccccc2)C(=O)c2cccc(C#N)c2)cc1COc1ccc(NC(C)=O)cc1` [Structure 75], the “Maximum Activity compared to TSH” value is recorded as 70.09 and the AC50 was found to be 20 µM. In the case of `COc1ccc(C2Cc3ccccc3C(=O)N2Cc2ccccc2)cc1COc1ccc(NC(C)=O)cc1` (stereo not shown) [Structure 76], the “Maximum Activity compared to TSH” value was determined as 64.77 and the concentration at half-maximal activity (AC50) came to 6.31 µM. With `COc1ccc(C2Nc3ccccc3C(=O)N2Cc2ccc(Cl)cc2)cc1COc1ccc(NC(C)=O)cc1` (stereo not shown) [Structure 77], the “Maximum Activity compared to TSH” value amounted to 68.63 and the AC50 is 3.16 µM.

For the compound `COc1ccc(C2Oc3ccccc3C(=O)N2Cc2ccccc2)cc1COc1ccc(NC(C)=O)cc1` (stereo not shown) [Structure 78], the “Maximum Activity compared to TSH” value worked out at 66.16 and the AC50 worked out at 8.91 µM.

As for `COc1ccc(C2Nc3ccccc3C(=O)N2Cc2cccc(-c3ccccc3)c2)cc1COc1ccc(NC(C)=O)cc1` (stereo not shown) [Structure 79], the “Maximum Activity compared to TSH” value stood at 61.52 and the concentration at half-maximal activity (AC50) amounted to 1.78 µM. On to `COc1ccc(-c2nc3ccc(NC(=O)CO)cc3c(=O)n2Cc2cccc(Cl)c2)cc1COc1ccc(NC(C)=O)cc1` [Structure 80], for which the AC50 was found to be 22.4 µM and the Emax stood at 40%.

For the compound `COc1ccc(CN(Cc2ccccc2)C(=O)C2CC2)cc1COc1ccc(NC(C)=O)cc1` [Structure 81], the “Maximum Activity compared to TSH” value amounted to 76.98 and the AC50 is 15.8 µM.

As for `COc1ccc(-c2nc3ccccc3c(=O)n2Cc2ccccc2)cc1CNc1ccc(CC(C)=O)cc1` [Structure 82], the concentration at half-maximal activity (AC50) amounted to 25.1 µM and the Emax is 59%. Regarding `COc1ccc(C2Oc3ccc(NC(C)=O)cc3C(=O)N2Cc2cccc(Cl)c2)cc1COc1ccc(NC(C)=O)cc1` (stereo not shown) [Structure 83], the half-maximal activity concentration (AC50) stood at 7.08 µM and the Emax amounted to 79%.

Regarding `COc1ccc(C2N(Cc3ccccc3)C(=O)c3ccccc3N2C)cc1COc1ccc(NC(C)=O)cc1` (stereo not shown) [Structure 84], the “Maximum Activity compared to TSH” value is 47.53 and the AC50 stood at 7.94 µM. For the compound `COc1ccc([C@H]2[C@H](c3ccccc3)C(=O)N2Cc2ccccc2)cc1COc1ccc(NC(C)=O)cc1` [Structure 85], the “Maximum Activity compared to TSH” value is 54.95. With `COc1ccc(C2Nc3ccccc3C(=O)N2Cc2cccc3ccccc23)cc1COc1ccc(NC(C)=O)cc1` (stereo not shown) [Structure 86], the “Maximum Activity compared to TSH” value is 51.11 and the AC50 stood at 6.31 µM. For `COc1ccc(OCc2cc(C3Nc4ccccc4C(=O)N3Cc3ccccc3)ccc2OC)cc1` (stereo not shown) [Structure 87], the AC50 is 3.98 µM and the Emax is 38%. With `COc1ccc(C2Nc3ccccc3C(=O)N2Cc2ccccc2C(F)(F)F)cc1COc1ccc(NC(C)=O)cc1` (stereo not shown) [Structure 88], the AC50 is 5.62 µM and the Emax turned out to be 30.5%. `COc1ccc(C2Nc3ccccc3C(=O)N2Cc2ccco2)cc1COc1ccc(NC(C)=O)cc1` (stereo not shown) [Structure 89]: the “Maximum Activity compared to TSH” value turned out to be 129.12 and the half-maximal activity concentration (AC50) came out at 25.1 µM. As to `COc1ccc([C@H]2[C@H](c3ccccc3)C(=O)N2Cc2ccccc2)cc1COc1ccc(NC(C)=O)cc1` [Structure 90], the “Maximum Activity compared to TSH” value is on record as 110.89. In the case of `COc1ccc(C2Nc3ccccc3C(=O)N2Cc2ccco2)cc1COc1ccc(NC(C)=O)cc1` (stereo not shown) [Structure 91], the “Maximum Activity compared to TSH” value was found to be 88.07 and the AC50 was found to be 15.8 µM.

Turning to `COc1ccc(C(=O)N(Cc2ccccc2)Cc2cccs2)c(O)c1` [Structure 92], the “Maximum Activity compared to TSH” value came to 133.48 and the concentration at half-maximal activity (AC50) amounted to 31.6 µM. Take `COc1ccc(C(=O)N(Cc2ccccc2)Cc2cccs2)c(O)c1` [Structure 93]: the “Maximum Activity compared to TSH” value came out at 111.66 and the AC50 was determined as 28.2 µM.

Consider `COc1ccc(C2Nc3ccccc3C(=O)N2Cc2ccco2)cc1COc1ccc(NC(C)=O)cc1` (stereo not shown) [Structure 94], for which the “Maximum Activity compared to TSH” value was 160.25 and the half-maximal activity concentration (AC50) was found to be 25.1 µM. `COc1ccc(-c2nc3ccccc3c(=O)n2Cc2ccccc2)cc1COc1ccc(NC(C)=O)cc1` [Structure 95]: the “Maximum Activity compared to TSH” value is reported as 138.18 and the AC50 is 12.6 µM. As for `COc1ccc(CN(Cc2ccccc2)C(=O)c2ccco2)cc1COc1ccc(NC(C)=O)cc1` [Structure 96], the concentration at half-maximal activity (AC50) is 14.1 µM and the Emax amounted to 125%. For `COc1ccc(-c2nc3ccccc3c(=O)n2Cc2ccccc2)cc1COc1ccc(NC(C)=O)cc1` [Structure 97], the “Maximum Activity compared to TSH” value came out at 132.18 and the concentration at half-maximal activity (AC50) was 15.8 µM. In the case of `COc1ccc(CN(Cc2ccccc2)C(=O)c2ccccc2)cc1COc1ccc(NC(C)=O)cc1` [Structure 98], the “Maximum Activity compared to TSH” value is on record as 140.53 and the concentration at half-maximal activity (AC50) amounted to 14.1 µM. In the case of `COc1ccc(C2Nc3ccccc3C(=O)N2Cc2cccnc2)cc1COc1ccc(NC(C)=O)cc1` (stereo not shown) [Structure 99], the AC50 is 35.5 µM and the Emax was found to be 104%. Regarding `COc1ccc(CN(Cc2ccccc2)C(=O)c2ccccc2N)cc1COc1ccc(NC(C)=O)cc1` [Structure 100], the “Maximum Activity compared to TSH” value is 190.35 and the AC50 was found to be 35.5 µM.

On to `COc1ccc(C(=O)N(Cc2ccco2)Cc2cccs2)c(O)c1` [Structure 101], for which the “Maximum Activity compared to TSH” value is listed as 128.51 and the AC50 came out at 28.2 µM. For the compound `COc1ccc(C(=O)N(Cc2ccccc2)Cc2ccco2)c(O)c1` [Structure 102], the AC50 turned out to be 15.8 µM and the Emax was found to be 88.7%. For `COc1ccc(C(=O)N(Cc2cccs2)Cc2cccs2)c(O)c1` [Structure 103], the “Maximum Activity compared to TSH” value is listed as 106.72 and the half-maximal activity concentration (AC50) stood at 15.8 µM. For the compound `COc1ccc(CN(Cc2ccccc2)C(=O)c2ccc(O)cc2)cc1COc1ccc(NC(C)=O)cc1` [Structure 104], the “Maximum Activity compared to TSH” value is given as 122.31 and the AC50 came to 39.8 µM. With `COc1ccc(C2Nc3ccc(NC(C)=O)cc3C(=O)N2Cc2ccccc2)cc1COc1ccc(NC(C)=O)cc1` (stereo not shown) [Structure 105], the AC50 came out at 17.8 µM and the Emax amounted to 126%. Consider `COc1ccc(C2Nc3cccc(OC)c3C(=O)N2Cc2ccccc2)cc1COc1ccc(NC(C)=O)cc1` (stereo not shown) [Structure 106], for which the half-maximal activity concentration (AC50) came out at 17.8 µM and the Emax stood at 45.4%. On the same counts, the results for `COc1ccc(C2Nc3ccccc3C(=O)N2Cc2ccc(CNC(=O)CO)cc2)cc1COc1ccc(NC(C)=O)cc1` (stereo not shown) [Structure 107] are 31.6 µM and 63.7%. Turning to `COc1ccc(C(=O)N(Cc2cccs2)Cc2cccs2)c(O)c1` [Structure 108], the “Maximum Activity compared to TSH” value turned out to be 63.12 and the AC50 was 15.8 µM. With `COc1ccc(CNc2ccccc2C(=O)NCc2ccccc2)cc1COc1ccc(NC(C)=O)cc1` [Structure 109], the AC50 was found to be 17.8 µM and the Emax is 47.5%. Regarding `COc1ccc(-c2nc3ccc(NC(C)=O)cc3c(=O)n2Cc2cccc(Cl)c2)cc1COc1ccc(NC(C)=O)cc1` [Structure 110], the “Maximum Activity compared to TSH” value is 48.00 and the concentration at half-maximal activity (AC50) is 22.4 µM.
